Read-outs that look alike come from different tables or passages of the source.
Legend:
[1] = test system: MV4-11 (FLT3 ITD+/+ mutant type); assay: In vitro growth inhibition (GI50), MV4-11; type: cell-based, human; settings: for GI50: Homo sapiens; for growth inhibitory effect on MV4-11 (in words): FLT3-ITD positive cell line MV4-11; for inhibition activity against the growth of MV4-11 cells compared with AC220: compared with the control compound AC220
[2] = test system: Karpas-299 (expressing NPM-ALK fusion gene); assay: In vitro growth inhibition (GI50), Karpas-299; type: cell-based; settings: Homo sapiens; Karpas-299, NPM-ALK
Description: Tumor cell line is an effective cell model for studying the inhibition of tumor cell growth or proliferation in vitro. In the present invention, a representative tumor cell line was selected to determine the cell growth inhibition activity of the present compound. All cell lines used were from ATCC, DSMZ, and the Cell Bank of the Chinese Academy of Sciences. Cell culture conditions and methods were in accordance with the requirements of each cell line. Cells were subcultured in vitro for no more than 3 passages each time, and as required, single-clone purification and identification of cell lines could be carried out.
The cell culture media used were RPMI1640 (Gibco), MEM (Gibco), McCOY'S5A (Gibco), and IMDM (Gibco). The complete medium was prepared by supplement with 5˜20% fetal calf serum (Gibco), 1% double-antibiotics (10000 units/mL penicillin and 10000 units/mL), 2 mM glutamine or 1 mM sodium pyruvate, respectively.
Human non-small cell lung cancer cell line NCI-H2228 (expressing EML4-ALK fusion gene, ATCC) and human anaplastic large cell lymphoma cell line Karpas-299 (expressing NPM-ALK fusion gene, ATCC) were cultured in complete medium comprising 1×RPMI1640 (10% FBS), respectively. Neuroblastoma cell line SH-SY5Y (expressing ALK F1174L mutant protein, Shanghai Cell Bank, Chinese Academy of Sciences) was cultured in MEM complete medium (1×MEM, 10% FBS, 1% NEAA, 1 mM sodium pyruvate).
Adherent cells were digested with 0.25% pancreatin-EDTA (Gibco). The suspension cells were collected by centrifugation. The supernatant was discarded and the cell pellet was resuspended and counted. Different cell concentrations (5˜10×10^4 cells/mL) were prepared according to the growth cycle of each cell line and then seeded on a 96-well plate (Corning), 100 μL/well. The cells were incubated overnight at 37° C., 5% CO2. The compounds were added to the cells on the second day with 2 wells in parallel. The final concentration of organic solvent shall not exceed 1%. The cells were continually incubated for 3 to 5 days, and then subjected to MTT assay.
The compound of the present invention and the control compound were dissolved in DMSO (Sigma) respectively, with the purity of more than 98%. The compound was stored in a concentration of 10 mM at −20° C. and diluted to 2- or 10-fold series prior to use.
Dojindo CCK8 reagent kit was used as MTT assay. THERMO […] FC meter was used as microplate reader.
For adherent cells, culture medium was removed and immediately replaced with the fresh prepared medium which contains 10% CCK8 reagent (100 μL/well). For the suspension cells, CCK8 was directly added to 10% of the final concentration. The cells were continually incubated for 1˜4 h. When a dark yellow color could be observed in the solvent control wells, the absorbance value at OD450 nm was measured and the cell growth rate was calculated according to the following formula: Cell Growth Rate (%)=100*(T−T0)/(C−T0) T=optical density of drug treatment cell well—optical density of blank control well; T0=optical density of cell well before drug treatment—optical density of blank control well; C=optical density of cell well of solvent control group—optical density of blank control well. The concentration value of 50% inhibition of cell growth (GI50) was calculated according to the drug concentration and cell growth rate curve. The experiment was independently repeated 1˜3 times, and subject to biological statistical analysis. 4. Experimental Results
Tumor cell growth inhibition test was performed by selecting representative compounds (compounds 4, 11, 12, 16, 27, 68, 71, 77, 79, 89 and 116 of the present invention). The initial concentration of the compound was 5,000 nM, then it was serially diluted by 2-fold or 10-fold to 0.01 nM. The GI50 value of each test compound was calculated according to the GI50 assay and calculation method. The experiments were repeated 1 to 3 times, and data were subjected to biological statistical analysis.

[3] = MV4-11, Cell lines of leukemia, read-out: GI 50 MV4-11 FLT3 (ITD +/+)
[4] = FLT3-ITD positive-expressing cell line MV4-11, Table 3, read-out: GI50 value, MV4-11
[5] = MV4-11, FLT3 ITD +/+, read-out: GI50

SMILES	GI50 [1, 3]	GI50 [1, 4]	GI50 [1, 5]	GI50 [2]	growth inhibitory effect on MV4-11 (in words) [1]	inhibition activity against the growth of MV4-11 cells compared with AC220 [1]
CC(C)(C)c1cc(NC(=O)Nc2ccc(-n3cnc4ccc(OCCN5CCOCC5)cc43)cc2)no1 [Compound 27, 1-(5-tert-butyl-isoxazol-3-yl)-3-{4-[6-(2morpholin-4-yl-ethoxyl)-benzimidazol-1-yl]-phenyl}-urea]	0.1 to 1 nM	0.039 to 0.8 nM	0.78 nM	–	–	–
CC(C)(C)c1cc(NC(=O)Nc2ccc(-n3cnc4cc(OCCO)ccc43)cc2)no1 [Compound 11, 1-(5-tert-butyl-isoxazol-3-yl)-3-{4-[5-(2-hydroxy-ethoxyl)-benzimidazol-1-yl]-phenyl]-urea]	0.01 to 0.1 nM	–	0.07 nM	–	strong growth inhibitory effects	stronger inhibition activity
CC(C)(C)c1cc(N)n(C(=O)Nc2ccc(-n3cnc4ccccc43)cc2)n1 [Compound 116, 5-amino-3-tert-butyl-pyrazol-1-carboxylic acid (4-benzimidazol-1-yl-phenyl)-amide]	10 to 100 nM	0.039 to 0.8 nM	1.51 nM	> 2500 nM	–	–
CC(C)(C)c1cc(NC(=O)Nc2ccc(-n3cnc4cc(OCCN5CCOCC5)ccc43)cc2)no1 [Compound 16, 1-(5-tert-butyl-isoxazol-3-yl)-3-{4-[5-(2-morpholin-4-yl-ethoxyl)-benzimidazol-1-yl]-phenyl}-urea]	0.1 to 1 nM	0.039 to 0.8 nM	0.48 nM	> 2500 nM	–	–
COCCOc1ccc2c(c1)ncn2-c1ccc(NC(=O)Nc2cc(C(C)(C)C)n[nH]2)cc1 [Compound 77, 1-(5-tert-butyl-2H-pyrazol-3-yl)-3-{4-[5-(2-methoxyl-ethoxyl)-benzimidazol-1-yl]-phenyl}-urea]	0.01 to 0.1 nM	0.039 to 0.8 nM	0.093 nM	> 2500 nM	–	stronger inhibition activity
CC(C)(C)c1cc(NC(=O)Nc2ccc(-n3cnc4cc(OCCN5CCOCC5)ccc43)cc2)[nH]n1 [Compound 89, 1-(5-tert-butyl-2H-pyrazol-3-yl)-3-{4-[5-(2-morpholin-4-yl-ethoxyl)-benzimidazol-1-yl]-phenyl}-urea]	0.01 to 0.1 nM	0.039 to 0.8 nM	0.041 nM	> 2500 nM	–	stronger inhibition activity
CC(C)(C)c1cc(NC(=O)Nc2ccc(-n3cnc4cc(O)ccc43)cc2)no1 [Compound 4, 1-(5-tert-butyl-isoxazol-3-yl)-3-[4-(5-hydroxy-benzimidazol-1-yl)-phenyl]-urea]	0.1 to 1 nM	–	0.12 nM	–	strong growth inhibitory effects	–

Further lines, with some results ahead:

GI50 [1, 3]	GI50 [1, 4]	GI50 [1, 5]	GI50 [2]	SMILES	growth inhibitory effect on MV4-11 (in words) [1]	inhibition activity against the growth of MV4-11 cells compared with AC220 [1]
0.1 to 1 nM	0.039 to 0.8 nM	0.48 nM	1880 nM	CC(C)(C)c1cc(NC(=O)Nc2ccc(-n3cnc4ccccc43)cc2)[nH]n1 [Compound 68, 1-(4-benzimidazol-1-yl-phenyl)-3-(5-tert-butyl-2H-pyrazol-3-yl)-urea]	–	–
0.01 to 0.1 nM	0.039 to 0.8 nM	0.039 nM	> 2500 nM	COc1ccc2c(c1)ncn2-c1ccc(NC(=O)Nc2cc(C(C)(C)C)n[nH]2)cc1 [Compound 71, 1-(5-tert-butyl-2H-pyrazol-3-yl)-3-[4-(5-methoxyl-benzimidazol-1-yl)-phenyl]-urea]	–	stronger inhibition activity
0.01 to 0.1 nM	–	0.047 nM	> 2500 nM	CC(C)(C)c1cc(NC(=O)Nc2ccc(-n3cnc4cc(OCCO)ccc43)cc2)[nH]n1 [Compound 79, 1-(5-tert-butyl-2H-pyrazol-3-yl)-3-{4-[5-(2-hydroxy-ethoxyl)-benzimidazol-1-yl]-phenyl]urea]	strong growth inhibitory effects	stronger inhibition activity

Reference: patent publication US10647680B2, “Urea compound, preparation method therefor and medical use thereof” (Ancureall Pharmaceutical (Shanghai) Co., Ltd., priority 2016, dated 2020)
